How the values were obtained:
Format in all cases: in vivo
[1] = system: barnyardgrass (Echinochloa crus-galli); assay: Test A pre-/postemergence plant response
Text: (§1) Seeds of barnyardgrass (Echinochloa crus-galli), large crabgrass (Digitaria sanguinalis), giant foxtail (Setaria faberii), morningglory (Ipomoea spp.), pigweed (Amaranthus retroflexus), velvetleaf (Abutilon theophrasti), wheat (Triticum aestivum) and corn (Zea mays) were planted into a blend of loam soil and sand and treated preemergence with a directed soil spray using test chemicals formulated in a non-phytotoxic solvent mixture which included a surfactant. At the same time these species were also treated with postemergence applications of test compounds formulated in the same manner.
(§2) Plants ranged in height from two to ten cm and were in the one- to two-leaf stage for the postemergence treatment. Treated plants and untreated controls were maintained in a greenhouse for approximately ten days, after which time all treated plants were compared to untreated controls and visually evaluated for injury. Plant response ratings, summarized in Table A, are based on a 0 to 100 scale where 0 is no effect and 100 is complete control. A dash (-) response means no test result.

[2] = system: corn (Zea mays); assay: Test A pre-/postemergence plant response
Text: as §1, §2

[3] = system: giant foxtail (Setaria faberii); assay: Test A pre-/postemergence plant response
Text: as §1, §2

[4] = system: large crabgrass (Digitaria sanguinalis); assay: Test A pre-/postemergence plant response
Text: as §1, §2

[5] = system: morningglory (Ipomoea spp.); assay: Test A pre-/postemergence plant response
Text: as §1, §2

[6] = system: pigweed (Amaranthus retroflexus); assay: Test A pre-/postemergence plant response
Text: as §1, §2

[7] = system: velvetleaf (Abutilon theophrasti); assay: Test A pre-/postemergence plant response
Text: as §1, §2

[8] = system: wheat (Triticum aestivum); assay: Test A pre-/postemergence plant response
Text: as §1, §2

[9] = system: barnyardgrass (Echinochloa crus-galli); assay: Test B flooded paddy test; conditions: for Plant response rating, Barnyardgrass: Flood (flooded paddy test), 13 to 15 days; for Barnyardgrass plant response rating: Flood, scale 0 to 100 (0 no effect, 100 complete control); for Plant response rating, Flood, Barnyardgrass: 250 g ai/ha, flooded paddy test, visual rating on 0 to 100 scale (0 no effect, 100 complete control) after 13 to 15 days
Summary of the method: (§3)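 2-leaf seedlings; pots flooded 3 cm over soil at treatment; cpd dosed into floodwater, depth kept constant. Greenhouse 13–15 d. Visual rating vs untreated controls, 0 = no effect, 100 = complete control.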

[10] = system: ducksalad (Heteranthera limosa); assay: Test B flooded paddy test; conditions: for Plant response rating, Ducksalad: Flood (flooded paddy test), 13 to 15 days; for Ducksalad plant response rating: Flood, scale 0 to 100 (0 no effect, 100 complete control); for Plant response rating, Flood, Ducksalad: 250 g ai/ha, flooded paddy test, visual rating on 0 to 100 scale (0 no effect, 100 complete control) after 13 to 15 days
Summary of the method: as §3

[11] = system: rice (Oryza sativa); assay: Test B flooded paddy test; conditions: for Plant response rating, Rice: Flood (flooded paddy test), 13 to 15 days; for Rice plant response rating: Flood, scale 0 to 100 (0 no effect, 100 complete control); for Plant response rating, Flood, Rice: 250 g ai/ha, flooded paddy test, visual rating on 0 to 100 scale (0 no effect, 100 complete control) after 13 to 15 days
Summary of the method: as §3

[12] = system: umbrella sedge (Cyperus difformis); assay: Test B flooded paddy test; conditions: for Plant response rating, Sedge, Umbrella: Flood (flooded paddy test), 13 to 15 days; for Sedge, Umbrella plant response rating: Flood, scale 0 to 100 (0 no effect, 100 complete control); for Plant response rating, Flood, Sedge, Umbrella: 250 g ai/ha, flooded paddy test, visual rating on 0 to 100 scale (0 no effect, 100 complete control) after 13 to 15 days
Summary of the method: as §3

[13] = Postemergence, 125 g ai/ha, 0 to 100 scale where 0 is no effect and 100 is complete control
[14] = Postemergence, 500 g ai/ha, visual injury, 0 to 100 scale (0 no effect, 100 complete control), approx. ten days
[15] = Preemergence, 125 g ai/ha, 0 to 100 scale, 0 = no effect, 100 = complete control
[16] = Preemergence, 500 g ai/ha, 0 to 100 scale, 0 = no effect, 100 = complete control
[17] = 125 g ai/ha, scale 0 to 100, 0 is no effect, 100 is complete control
[18] = Postemergence, 125 g ai/ha, visual injury, 0 to 100 scale (0 no effect, 100 complete control), approx. ten days
[19] = Postemergence, 500 g ai/ha, 0 to 100 scale, 0 = no effect, 100 = complete control, approx. ten days
[20] = Preemergence, 500 g ai/ha, visual injury, 0 to 100 scale (0 no effect, 100 complete control), approx. ten days
[21] = 31 g ai/ha, scale of 0 to 100 where 0 is no effect and 100 is complete control
[22] = 62 g ai/ha, scale 0 to 100, 0 is no effect, 100 is complete control
[23] = 62 g ai/ha, scale of 0 to 100 where 0 is no effect and 100 is complete control

O=C1CCCC(O)=C1C(=O)c1cnc(-c2ccccc2)n(C2CC[S+]([O-])CC2)c1=O (mixture of isomers) [Compound 168, 5-[(2-hydroxy-6-oxo-1-cyclohexen-1-yl)carbonyl]-2-phenyl-3-(cis/trans-tetrahydro-1-oxido-2H-thiopyran-4-yl)-4(3H)-pyrimidinone]
Plant response rating, Barnyardgrass [1, 13]: 30
Barnyardgrass plant response rating [1, 14]: 100
Plant response rating, Barnyardgrass [1, 15]: 0
Plant response rating, Barnyardgrass [1, 16]: 20
Plant response rating, Corn [2, 13]: 20
Corn plant response rating [2, 14]: 30
Plant response rating, Corn [2, 15]: 0
Plant response rating, Corn [2, 16]: 0
Plant response rating, Foxtail, Giant [3, 13]: 50
Foxtail, Giant plant response rating [3, 14]: 90
Plant response rating, Foxtail, Giant [3, 15]: 10
Plant response rating, Foxtail, Giant [3, 16]: 70
Plant response rating, Crabgrass, Large [4, 13]: 50
Crabgrass, Large plant response rating [4, 14]: 90
Plant response rating, Crabgrass, Large [4, 15]: 30
Plant response rating, Crabgrass, Large [4, 16]: 80
Plant response rating, Morningglory [5, 13]: 100
Morningglory plant response rating [5, 14]: 100
Plant response rating, Morningglory [5, 15]: 0
Plant response rating, Morningglory [5, 16]: 70
Plant response rating, Pigweed [6, 13]: 100
Pigweed plant response rating [6, 14]: 100
Plant response rating, Pigweed [6, 15]: 10
Plant response rating, Pigweed [6, 16]: 50
Plant response rating, Velvetleaf [7, 13]: 100
Velvetleaf plant response rating [7, 14]: 100
Plant response rating, Velvetleaf [7, 15]: 0
Plant response rating, Velvetleaf [7, 16]: 60
Plant response rating, Wheat [8, 13]: 0
Wheat plant response rating [8, 14]: 50
Plant response rating, Wheat [8, 15]: 0
Plant response rating, Wheat [8, 16]: 0
Plant response rating, Barnyardgrass [9, 17]: 0
Barnyardgrass plant response rating ([9]; 31 g ai/ha): 0
Plant response rating, Ducksalad [10, 17]: 30
Ducksalad plant response rating ([10]; 31 g ai/ha): 0
Plant response rating, Rice [11, 17]: 0
Rice plant response rating ([11]; 31 g ai/ha): 0
Plant response rating, Sedge, Umbrella [12, 17]: 20
Sedge, Umbrella plant response rating ([12]; 31 g ai/ha): 0

O=C1CCCC(O)=C1C(=O)c1cnc(-c2ccccc2Cl)n(-c2ccccc2)c1=O [Compound 35]
Barnyardgrass plant response rating [1, 18]: 10
Plant response rating, Barnyardgrass [1, 19]: 60
Plant response rating, Barnyardgrass [1, 15]: 0
Plant response rating, Barnyardgrass [1, 20]: 0
Corn plant response rating [2, 18]: 0
Plant response rating, Corn [2, 19]: 10
Plant response rating, Corn [2, 15]: 0
Plant response rating, Corn [2, 20]: 0
Foxtail, Giant plant response rating [3, 18]: 40
Plant response rating, Foxtail, Giant [3, 19]: 80
Plant response rating, Foxtail, Giant [3, 15]: 0
Plant response rating, Foxtail, Giant [3, 20]: 10
Crabgrass, Large plant response rating [4, 18]: 50
Plant response rating, Crabgrass, Large [4, 19]: 80
Plant response rating, Crabgrass, Large [4, 15]: 10
Plant response rating, Crabgrass, Large [4, 20]: 60
Plant response rating, Morningglory [5, 19]: 80
Plant response rating, Morningglory [5, 20]: 20
Pigweed plant response rating [6, 18]: 80
Plant response rating, Pigweed [6, 19]: 100
Plant response rating, Pigweed [6, 15]: 10
Plant response rating, Pigweed [6, 20]: 100
Velvetleaf plant response rating [7, 18]: 100
Plant response rating, Velvetleaf [7, 19]: 100
Plant response rating, Velvetleaf [7, 15]: 0
Plant response rating, Velvetleaf [7, 20]: 70
Wheat plant response rating [8, 18]: 0
Plant response rating, Wheat [8, 19]: 0
Plant response rating, Wheat [8, 15]: 0
Plant response rating, Wheat [8, 20]: 0
Plant response rating, Flood, Barnyardgrass [9]: 0
Plant response rating, Barnyardgrass [9, 21]: 0
Plant response rating, Barnyardgrass [9, 22]: 0
Plant response rating, Barnyardgrass [9, 17]: 0
Plant response rating, Flood, Ducksalad [10]: 0
Plant response rating, Ducksalad [10, 21]: 0
Plant response rating, Ducksalad [10, 22]: 0
Plant response rating, Ducksalad [10, 17]: 0
Plant response rating, Rice [11, 21]: 0
Plant response rating, Rice [11, 22]: 0
Plant response rating, Rice [11, 17]: 0
Plant response rating, Flood, Sedge, Umbrella [12]: 0
Plant response rating, Sedge, Umbrella [12, 21]: 0
Plant response rating, Sedge, Umbrella [12, 22]: 0
Plant response rating, Sedge, Umbrella [12, 17]: 0

CCn1c(-c2cccc(C)c2)ncc(C(=O)C2=C(O)C3CCC(C3)C2=O)c1=O (centres unmarked) [Compound 231]
Plant response rating, Barnyardgrass [1, 13]: 70
Barnyardgrass plant response rating [1, 14]: 90
Plant response rating, Barnyardgrass [1, 15]: 0
Plant response rating, Barnyardgrass [1, 16]: 60
Plant response rating, Corn [2, 13]: 0
Corn plant response rating [2, 14]: 40
Plant response rating, Corn [2, 15]: 0
Plant response rating, Corn [2, 16]: 20
Plant response rating, Foxtail, Giant [3, 13]: 60
Foxtail, Giant plant response rating [3, 14]: 80
Plant response rating, Foxtail, Giant [3, 15]: 0
Plant response rating, Foxtail, Giant [3, 16]: 60
Plant response rating, Crabgrass, Large [4, 13]: 50
Crabgrass, Large plant response rating [4, 14]: 70
Plant response rating, Crabgrass, Large [4, 15]: 40
Plant response rating, Crabgrass, Large [4, 16]: 90
Plant response rating, Morningglory [5, 13]: 90
Morningglory plant response rating [5, 14]: 100
Plant response rating, Morningglory [5, 15]: 10
Plant response rating, Morningglory [5, 16]: 80
Plant response rating, Pigweed [6, 13]: 80
Pigweed plant response rating [6, 14]: 90
Plant response rating, Pigweed [6, 15]: 50
Plant response rating, Pigweed [6, 16]: 80
Plant response rating, Velvetleaf [7, 13]: 90
Velvetleaf plant response rating [7, 14]: 100
Plant response rating, Velvetleaf [7, 15]: 50
Plant response rating, Velvetleaf [7, 16]: 60
Plant response rating, Wheat [8, 13]: 0
Wheat plant response rating [8, 14]: 0
Plant response rating, Wheat [8, 15]: 0
Plant response rating, Wheat [8, 16]: 0
Plant response rating, Flood, Barnyardgrass [9]: 40
Plant response rating, Barnyardgrass [9, 23]: 40
Plant response rating, Flood, Ducksalad [10]: 0
Plant response rating, Ducksalad [10, 23]: 0
Plant response rating, Flood, Rice [11]: 0
Plant response rating, Rice [11, 23]: 0
Plant response rating, Flood, Sedge, Umbrella [12]: 75
Plant response rating, Sedge, Umbrella [12, 23]: 0

CCn1c(-c2cccc(Cl)c2)ncc(C(=O)C2=C(O)CCCC2=O)c1=O [Compound 145]
Plant response rating, Barnyardgrass [1, 13]: 70
Plant response rating, Barnyardgrass [1, 19]: 100
Plant response rating, Barnyardgrass [1, 15]: 20
Plant response rating, Barnyardgrass [1, 20]: 90
Plant response rating, Corn [2, 13]: 30
Plant response rating, Corn [2, 19]: 40
Plant response rating, Corn [2, 15]: 0
Plant response rating, Corn [2, 20]: 20
Plant response rating, Foxtail, Giant [3, 13]: 60
Plant response rating, Foxtail, Giant [3, 19]: 80
Plant response rating, Foxtail, Giant [3, 15]: 30
Plant response rating, Foxtail, Giant [3, 20]: 70
Plant response rating, Crabgrass, Large [4, 13]: 70
Plant response rating, Crabgrass, Large [4, 19]: 90
Plant response rating, Crabgrass, Large [4, 15]: 50
Plant response rating, Crabgrass, Large [4, 20]: 100
Plant response rating, Morningglory [5, 13]: 90
Plant response rating, Morningglory [5, 19]: 90
Plant response rating, Morningglory [5, 15]: 0
Plant response rating, Morningglory [5, 20]: 80
Plant response rating, Pigweed [6, 13]: 100
Plant response rating, Pigweed [6, 19]: 100
Plant response rating, Pigweed [6, 15]: 70
Plant response rating, Pigweed [6, 20]: 100
Plant response rating, Velvetleaf [7, 13]: 100
Plant response rating, Velvetleaf [7, 19]: 100
Plant response rating, Velvetleaf [7, 15]: 90
Plant response rating, Velvetleaf [7, 16]: 100
Plant response rating, Wheat [8, 13]: 0
Plant response rating, Wheat [8, 19]: 0
Plant response rating, Wheat [8, 15]: 0
Plant response rating, Wheat [8, 16]: 20
Plant response rating, Flood, Barnyardgrass [9]: 25
Plant response rating, Barnyardgrass [9, 23]: 0
Plant response rating, Barnyardgrass [9, 17]: 0
Barnyardgrass plant response rating ([9]; 31 g ai/ha): 0
Plant response rating, Flood, Ducksalad [10]: 80
Plant response rating, Ducksalad [10, 23]: 80
Plant response rating, Ducksalad [10, 17]: 80
Ducksalad plant response rating ([10]; 31 g ai/ha): 80
Plant response rating, Flood, Rice [11]: 0
Plant response rating, Rice [11, 23]: 0
Plant response rating, Rice [11, 17]: 0
Rice plant response rating ([11]; 31 g ai/ha): 0
Plant response rating, Flood, Sedge, Umbrella [12]: 80
Plant response rating, Sedge, Umbrella [12, 23]: 0
Plant response rating, Sedge, Umbrella [12, 17]: 60
Sedge, Umbrella plant response rating ([12]; 31 g ai/ha): 0
